The target of test [1] is Recombinant ROCK2 (amino acids 1-552) (Homo sapiens (Human), UniProt O75116). In words: Z′-Lyte kinase assay, ROCK2. It counts as biochemical. The conditions noted are these: for inhibition at 1 µM: 1 μM compound, read-out: ROCK2 % inh. @ [conc]; for IC50: 9 points 2-fold serial dilution. The protocol: Determination of Compound's ROCK Inhibitory Activity In Vitro (Z'Lyte Assay).
Recombinant ROCK1 (amino acids 1-535) and ROCK2 (amino acids 1-552) proteins were purchased from ThermoFisher Scientific. Compound's activities were measured by Z′-lyte kinase kit (ThermoFisher Scientific) and IC50 was calculated
In vitro activities for the compounds were measured with Z′-lyte kinase kit (ThermoFisher Scientific). The percent inhibition rate was calculated by normalizing the kinase activity value obtained with 1 μM compound treatment against DMSO control value and then applied to the formula, [1-(compound/DMSO)]×100%. IC50s were calculated using the nonlinear regression curve fit function of the GraphPad Prism software with kinase activities data measured with 9 points 2-fold serial dilution of compounds treatment. In cell pMLC IC50s were calculated with data obtained from A7R5 cell experiments. A7R5 cells were treated with 9 points 2-fold serial dilution of compounds and ppMlc (T18/S19) levels were determined to calculate cellular IC50 values of the compounds using the nonlinear regression curve fit function of the GraphPad Prism software. NIH3T3 cells stably expressing ACTA2-promoter-driven-luciferase were applied to measure ROCK compounds functional IC50s in cells. Cells were plated in 96 well plates to confluence and treated with 9 points serial dilution of compounds in combination with TGFβ1 for 24 hr. Luciferase activities were measured and compound's IC50s were calculated using the nonlinear regression curve fit function of the GraphPad Prism software.

Test [2] concerns ppMlc (T18/S19) levels in A7R5 cells. In words: A7R5 in-cell ELISA (pMLC). It counts as cell-based, Rat. The conditions noted are these: Rattus norvegicus, A7R5, A7R5 cells; for inhibition at 1 µM: 1 μM compound; for inhibition at 1 µM / inhibition at 10 µM: read-out: pMLC % inh A7R5 @ [conc]; for IC50: ppMlc (T18/S19); for inhibition at 10 µM: 10 μM compound. Summed up: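 A7R5 rat aortic smooth muscle cells seeded 24 h, then treated 90 min with a 9-point 2-fold compound dilution series. Fixed cells probed for ppMlc (T18/S19) by colorimetric in-cell ELISA; cellular IC50 from nonlinear regression curve fit.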
A general note: ELISA stands for enzyme-linked immunosorbent assay.

Structures are written as SMILES.

Chain of Recombinant ROCK2 (amino acids 1-552) (O75116 1-552): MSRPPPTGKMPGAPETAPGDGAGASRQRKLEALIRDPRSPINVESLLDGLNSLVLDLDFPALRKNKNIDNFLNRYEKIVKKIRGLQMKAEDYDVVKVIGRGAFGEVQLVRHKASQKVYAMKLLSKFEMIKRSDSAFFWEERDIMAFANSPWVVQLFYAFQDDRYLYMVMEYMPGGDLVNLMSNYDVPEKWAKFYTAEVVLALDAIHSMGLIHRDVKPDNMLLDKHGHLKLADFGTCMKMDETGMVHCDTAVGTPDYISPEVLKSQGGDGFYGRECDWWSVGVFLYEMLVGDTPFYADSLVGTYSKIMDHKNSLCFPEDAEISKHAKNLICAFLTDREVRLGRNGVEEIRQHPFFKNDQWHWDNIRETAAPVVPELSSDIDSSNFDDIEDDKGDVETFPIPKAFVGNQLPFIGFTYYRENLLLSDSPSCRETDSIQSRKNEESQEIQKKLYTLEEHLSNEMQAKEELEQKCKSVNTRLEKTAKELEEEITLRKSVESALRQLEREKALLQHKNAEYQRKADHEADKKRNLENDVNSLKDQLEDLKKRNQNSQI

Take `COc1cnc(N2CCNCC(C)C2)nc1Nc1ccc2[nH]ncc2c1` (stereo not shown) [Example 56, N-(5-methoxy-2-(6-methyl-1,4-diazepan-1-yl)pyrimidin-4-yl)-1H-indazol-5-amine]: the inhibition at 1 µM is 87.1% in test [1] and 29% in test [2].
For `c1cc(Nc2ccc3[nH]ncc3c2)nc(N2CCNC3(CC3)C2)n1` [Example 66, N-(2-(4,7-diazaspiro[2.5]octan-7-yl)pyrimidin-4-yl)-1H-indazol-5-amine], the inhibition at 1 µM in test [1] was 86.3%; in test [2], 17.5%. Further, the IC50 in test [1] stood at 380 nM.
On to `c1cc(Nc2ccc3[nH]ncc3c2)nc(N2CC3CCC2CN3)n1` (stereo not shown) [Example 67, N-(2-(2,5-diazabicyclo[2.2.2]octan-2-yl)pyrimidin-4-yl)-1H-indazol-5-amine], for which the values for the inhibition at 1 µM in test [1] and in test [2] were 99.2% and 31.4%, respectively. The IC50 in test [1] was found to be 45 nM; in test [2], 1360 nM.
`CC1CN(c2nccc(Nc3ccc4[nH]ncc4c3)n2)C(C)CN1` (stereo not shown) [Example 68, N-(2-(2,5-dimethylpiperazin-1-yl)pyrimidin-4-yl)-1H-indazol-5-amine]: in test [1], the IC50 came to 294 nM. Besides, in test [2], the inhibition at 1 µM was 35.4% and the IC50 was found to be 1010 nM.
In the case of `c1cc(Nc2ccc3[nH]ncc3c2)nc(N2CC3CNC(C3)C2)n1` (stereo not shown) [Example 78, N-(2-(3,6-diazabicyclo[3.2.1]octan-3-yl)pyrimidin-4-yl)-1H-indazol-5-amine], the inhibition at 1 µM was determined as 99.1% in test [1] and 20.3% in test [2].
In the same order, the values of `c1cc(Nc2ccc3[nH]ncc3c2)nc(N2CCN3CCNCC3C2)n1` (stereo not shown) [Example 84, N-(2-(octahydro-2H-pyrazino[1,2-a]pyrazin-2-yl)pyrimidin-4-yl)-1H-indazol-5-amine] are 22.2% and 0.7%.
As to `c1cc(Nc2ccc3[nH]ncc3c2)nc(N2CCC3CNCC3CC2)n1` (stereo not shown) [Example 85, N-(2-(octahydropyrrolo[3,4-d]azepin-6(1H)-yl)pyrimidin-4-yl)-1H-indazol-5-amine], the inhibition at 1 µM in test [1] worked out at 98%; in test [2] it was 17.3%.
In the case of `c1ccc2c(c1)N(c1nccc(Nc3ccc4[nH]ncc4c3)n1)CC21CCNCC1` [Example 87, N-(2-(spiro[indoline-3,4′-piperidin]-1-yl)pyrimidin-4-yl)-1H-indazol-5-amine], the inhibition at 1 µM in test [1] came out at 7.6%; in test [2] it was 5.8%.
Take `c1ccc2c(c1)C(C1CCNCC1)CN2c1nccc(Nc2ccc3[nH]ncc3c2)n1` (stereo not shown) [Example 88, N-(2-(3-(piperidin-4-yl)indolin-1-yl)pyrimidin-4-yl)-1H-indazol-5-amine]: the inhibition at 1 µM in test [1] amounted to 13.8%; in test [2], 5.6%.
For `c1ccc2c(c1)C(C1CCCNC1)CN2c1nccc(Nc2ccc3[nH]ncc3c2)n1` (stereo not shown) [Example 89, N-(2-(3-(piperidin-3-yl)indolin-1-yl)pyrimidin-4-yl)-1H-indazol-5-amine] the same measures were 12.7% and 20.1%.
In the case of `CC1CN(c2ncc(Cl)c(Nc3ccc4[nH]ncc4c3)n2)CCCN1` (stereo not shown) [Example 90, N-(5-chloro-2-(3-methyl-1,4-diazepan-1-yl)pyrimidin-4-yl)-1H-indazol-5-amine], the inhibition at 1 µM in test [1] amounted to 73.8%. Further, in test [2], the inhibition at 10 µM was 54.2% and the IC50 stood at 2200 nM.
For the molecule `Cc1cnc(N2CCNC(C)C2)nc1Nc1ccc2[nH]ncc2c1` (stereo not shown) [Example 91, N-(5-methyl-2-(3-methylpiperazin-1-yl)pyrimidin-4-yl)-1H-indazol-5-amine], the inhibition at 1 µM in test [1] is 47.9%. Also, in test [2], the inhibition at 10 µM came out at 46.7%.
Turning to `Cc1cnc(N2CCNCC2)nc1Nc1ccc2[nH]ncc2c1` [Example 95, N-(5-methyl-2-(piperazin-1-yl)pyrimidin-4-yl)-1H-indazol-5-amine], the inhibition at 1 µM in test [1] is 61%. For the same molecule, the inhibition at 10 µM in test [2] came out at 46.7%.
In the same order, the values of `CCC1CCN(c2ncc(C)c(Nc3ccc4[nH]ncc4c3)n2)CCN1` (stereo not shown) [Example 96, N-(2-(5-ethyl-1,4-diazepan-1-yl)-5-methylpyrimidin-4-yl)-1H-indazol-5-amine] are 27.2% and 14.3%.
For `Cc1cnc(N2CCNCC2C)nc1Nc1ccc2[nH]ncc2c1` (stereo not shown) [Example 97, N-(5-methyl-2-(2-methylpiperazin-1-yl)pyrimidin-4-yl)-1H-indazol-5-amine], in test [1], the inhibition at 1 µM was found to be 54%. Moreover, in test [2], the inhibition at 10 µM came to 52.5% and the IC50 worked out at 2340 nM.
`Cc1cnc(N2CC(C)NC(C)C2)nc1Nc1ccc2[nH]ncc2c1` (stereo not shown) [Example 98, N-(2-(3,5-dimethylpiperazin-1-yl)-5-methylpyrimidin-4-yl)-1H-indazol-5-amine]: the inhibition at 1 µM in test [1] is 0%. Besides, the inhibition at 10 µM in test [2] is 17.4%.
For `Cc1cnc(N2CCNC(C)CC2)nc1Nc1ccc2[nH]ncc2c1` (stereo not shown) [Example 100, N-(5-methyl-2-(5-methyl-1,4-diazepan-1-yl)pyrimidin-4-yl)-1H-indazol-5-amine] the same measures were 47.5% and 46.4%.
Consider `Cc1cnc(N2CCCNC(C)C2)nc1Nc1ccc2[nH]ncc2c1` (stereo not shown) [Example 102, N-(5-methyl-2-(3-methyl-1,4-diazepan-1-yl)pyrimidin-4-yl)-1H-indazol-5-amine], for which, in test [1], the inhibition at 1 µM is 48.5% and the IC50 came out at 1100 nM. In addition, the inhibition at 10 µM in test [2] was determined as 43.5%.
Take `Cc1cnc(N2CCCNCC2C)nc1Nc1ccc2[nH]ncc2c1` (stereo not shown) [Example 104, N-(5-methyl-2-(2-methyl-1,4-diazepan-1-yl)pyrimidin-4-yl)-1H-indazol-5-amine]: the inhibition at 1 µM in test [1] stood at 82.9%. In test [2], the inhibition at 1 µM came to 31.6% and the IC50 was 997 nM.
As to `CCC1CNCCCN1c1ncc(C)c(Nc2ccc3[nH]ncc3c2)n1` (stereo not shown) [Example 105, N-(2-(2-ethyl-1,4-diazepan-1-yl)-5-methylpyrimidin-4-yl)-1H-indazol-5-amine], the inhibition at 1 µM in test [1] came out at 53.9%; in test [2], 15.1%.
In the same order, the values of `CCC1CN(c2ncc(C)c(Nc3ccc4[nH]ncc4c3)n2)CCCN1` (stereo not shown) [Example 106, N-(2-(3-ethyl-1,4-diazepan-1-yl)-5-methylpyrimidin-4-yl)-1H-indazol-5-amine] are 34.1% and 12.8%.
In the same order, the values of `Cc1cnc(N2C3CCC2CNC3)nc1Nc1ccc2[nH]ncc2c1` [Example 107, N-(2-(3,8-diazabicyclo[3.2.1]octan-8-yl)-5-methylpyrimidin-4-yl)-1H-indazol-5-amine] are 98.3% and 26%.
Take `CCC1CCN(c2nc(C)cc(Nc3ccc4[nH]ncc4c3)n2)CCN1` (stereo not shown) [Example 109, N-(2-(5-ethyl-1,4-diazepan-1-yl)-6-methylpyrimidin-4-yl)-1H-indazol-5-amine]: the inhibition at 1 µM in test [1] came out at 68.4%. Moreover, in test [2], the inhibition at 10 µM turned out to be 52.3% and the IC50 was determined as 1880 nM.
Consider `Cc1cc(Nc2ccc3[nH]ncc3c2)nc(N2CCCNC(C(C)C)C2)n1` (stereo not shown) [Example 110, N-(2-(3-isopropyl-1,4-diazepan-1-yl)-6-methylpyrimidin-4-yl)-1H-indazol-5-amine], for which the inhibition at 1 µM in test [1] was 67.5%. Also, in test [2], the inhibition at 10 µM worked out at 50.9% and the IC50 came to 1390 nM.
As for `Cc1cc(Nc2ccc3[nH]ncc3c2)nc(N2CCNC(C(C)C)CC2)n1` (stereo not shown) [Example 111, N-(2-(5-isopropyl-1,4-diazepan-1-yl)-6-methylpyrimidin-4-yl)-1H-indazol-5-amine], in test [1], the inhibition at 1 µM worked out at 31.8%. The inhibition at 10 µM in test [2] was determined as 44%.
With `Cc1cc(Nc2ccc3[nH]ncc3c2)nc(N2CC(C)NC(C)C2)n1` (stereo not shown) [Example 113, N-(2-(3,5-dimethylpiperazin-1-yl)-6-methylpyrimidin-4-yl)-1H-indazol-5-amine], the inhibition at 1 µM in test [1] amounted to 58.1%. Also, in test [2], the inhibition at 10 µM turned out to be 47.5% and the IC50 stood at 2880 nM.
`CCC1CN(c2nc(C)cc(Nc3ccc4[nH]ncc4c3)n2)CCN1` (stereo not shown) [Example 114, N-(2-(3-ethylpiperazin-1-yl)-6-methylpyrimidin-4-yl)-1H-indazol-5-amine]: the inhibition at 1 µM in test [1] was found to be 82%. Further, the inhibition at 10 µM in test [2] is 48.7%.
`Cc1cc(Nc2ccc3[nH]ncc3c2)nc(N2CCNC(C(C)C)C2)n1` (stereo not shown) [Example 115, N-(2-(3-isopropylpiperazin-1-yl)-6-methylpyrimidin-4-yl)-1H-indazol-5-amine]: in test [1], the inhibition at 1 µM was found to be 64.2%. For the same molecule, in test [2], the inhibition at 10 µM is 48.2%.
Turning to `Cc1cc(Nc2ccc3[nH]ncc3c2)nc(N2CCNC(C)CC2)n1` (stereo not shown) [Example 116, N-(6-methyl-2-(5-methyl-1,4-diazepan-1-yl)pyrimidin-4-yl)-1H-indazol-5-amine], in test [1], the inhibition at 1 µM was found to be 81.9%. In test [2], the inhibition at 10 µM was found to be 51.6% and the IC50 amounted to 1020 nM.

Broadly, the IC50 is the concentration needed to halve the response being measured.
